US6028083A, “Esters of (+)-α-(2,3-dimethoxyphenyl)-1-[2-(4-fluorophenyl) ethyl]-4-piperidinemethanol” (Hoechst Marion Roussel, Inc., priority 1997, dated 2000)

Experiments:
5HT2A receptor [1] = conditions: literature (Pranzatelli 1990; Wettstein et al. 1996); cited from earlier work
in vivo = assay: in vivo; set-up: species or system male Wistar rats; conditions: rat, im, 120 mg/kg
Experimental: Rats are anesthetized with a lethal i.p. dose of nembutal and blood collected at 3 and 6 hours, and various days post-dose (n=5 for each timepoint) in heparinized vacutainers. Blood samples are centrifuged for 30 minutes at 5 C and at approximately 2700 rpm. Plasma is removed and stored at -20° C. until assay. The plasma samples are analyzed by an appropriate HPLC method. Brains will also be collected at the above timepoints and stored at -80° C. until analyzed by the appropriate HPLC method.

5HT2A receptor [2] = assay: Antagonism of DOI-induced behaviors in rats; type: in vivo, Male Sprague-Dawley rats; conditions: single i.m. injection in sesame oil, 120 mg/kg equivalent to MDL 100,907, DOI 3.0 mg/kg i.p.
Excerpt: The compound of the present invention used in this test was (+)-α-(2,3-Dimethyoxyphenyl)-1-[2-(4-fluorophenyl)ethyl]-4-piperidinemethanol decanoate--Example 4 herein.-- The 5-HT2A/2C agonist (±)-DOI HCl (1-(2,5-dimethoxy-4-iodophenyl)-2-aminopropane hydrochloride) induces several quantifiable behaviors in rats. These behaviors include "shakes" (a quick head and body shake, a.k.a. wet dog shakes), "forepaw tapping" (rapid forepaw treading) and "skin-jerks" (paraspinal muscle contractions or dorsal skin-shrugging).
Male Sprague-Dawley rats (180±50 g) were housed seven per cage and allowed 1 week to acclimate to the vivarium. Food and water were freely available. The temperature and light cycle (12 h on-12 h off)were automatically maintained. Individual rats were tested once. Each testing group contained seven animals. Experiments took place in the vivarium room where the animals were housed.
Vehicle control animals were injected with sesame oil alone. (±)-DOI HCl (3.0 mg/kg, 1 mL/kg body weight) was dissolved in distilled water with the aid an ultrasonic bath, and injected intraperitoneally on appropriate testing days.
(+)-α-(2,3-Dimethyoxyphenyl)-1-[2-(4-fluorophenyl)ethyl]-4-piperidinementhanol decanoate-treated rats were tested for antagonism of DOI-induced behaviors 1, 5, 7, 14, 21, 28 and 40 days after the single (+)-α-(2,3-Dimethyoxyphenyl)-1-[2-(4-fluorophenyl)ethyl]-4-piperidinementhanol decanoate intramuscular injection. Each rat was tested once. Immediately after DOI injection rats were placed under inverted clear plastic boxes (28 L×25 W×25 H cm) which were arranged on top of clean absorbent paper. Rats were continuously watched by trained observers (blind to treatment) for 30 minutes for the occurrence of DOI-induced behaviors (shakes, skin-jerks and forepaw tapping bouts) and then returned to their home cages. Rats were later used for pharmacokinetic studies. The frequencies of DOI-induced behaviors were recorded and then summed to provide a single behavioral score for each animal.
The mean and standard error of the behavioral scores of each group was determined. […]

[3] = Chronic Mild Stress Model of Depression (CMS), consumption of 1% sucrose solution; type: in vivo, Male Wistar rats
Excerpt: CMS uses mild stressors, such as food and water deprivation, small temperature changes, changes of cage mates, etc. Over a period of weeks of exposure to the mild stressors, the animals gradually reduce their consumption of a highly preferred sucrose solution which persists (in untreated animals) for several weeks following the cessation of stress. This decreased sensitivity to reward (the sucrose solution) reflects anhedonia, a symptom of a Major Depressive Episode (see for example, Behavioral Pharmacol.5: Suppl. 1, p. 86 (1994) where lithium, carbamazepine and ketoconazole were evaluated in CMS; Psychopharmacology 93:358-364 (1987) where a tricyclic antidepressant was evaluated in CMS; Behavioral Pharmacology:5:344-350 (1994) where a catechol-O-methyl transferase inhibitor was evaluated in CMS).
Male Wistar rats were brought into the laboratory two months before the start of the experiment at which time they weighed approximately 300 grams. Except as described below, the animals were singly housed, with food a water freely available, and maintained on a 12 hour light/dark cycle (lights on at 8 AM) at a temperature of 22±° C.
The animals were first trained to consume a 1% sucrose solution; training consisted of eight 1 hour baseline tests in which sucrose was presented, in the home cage, following 14 hours food and water deprivation; intake was measured by weighing pre-weighed bottles containing the sucrose solution at the end of the test. Subsequently, sucrose consumption was monitored, under similar conditions, at weekly intervals throughout the whole experiment.
On the basis of their sucrose intakes in the final baseline test, the animals were divided into two matched groups. One group of animals was subjected to a chronic mild stress procedure for a period of 9 consecutive weeks. Each week of stress regime consisted of: two periods of food or water deprivation (12 and 14 hour), two periods of 45 degree cage tilt (12 and 14 h), two periods of intermittent overnight illumination (lights on and off every 2 hours), two 14 hour periods of soiled cage (200 ml water in sawdust bedding), two 14 hour periods of paired housing, two 14 hour periods of low intensity stroboscopic illumination (150 flashes/min). Stressors were applied continuously throughout the day and night, and scheduled randomly. […] They were deprived of food and water for the 14 hours preceding each sucrose test, but otherwise food and water were freely available in the home cage. […] All drug injections were in a volume of 1 ml/kg body weight. Drugs were administered at 10 AM and sucrose tests were carried out 24 hours following the last drug treatment. After five weeks, the treatments were terminated and after one week of withdrawal a final sucrose test was carried out. Stress was continued throughout the period of treatment and withdrawal.
Results were analyzed by multiple analysis of variance, followed by Fisher's LSD test for post hoc comparisons of means.

platelets = conditions: U.S. Pat. No. 5,561,144, cited from earlier work
[4] = test system: dopamine efflux in the medial prefrontal cortex; conditions: European Journal of Pharmacology 273: 273-279 (1995); cited from earlier work
[5] = test system: PPI (prepulse inhibition); conditions: Psychopharmacology 124: 107-116 (1996); cited from earlier work
5HT2A receptor [6] = conditions: cited from earlier work
myocardial tissue = conditions: no source or data given; cited from earlier work
[7] = imipramine 10 mg/kg ip daily, five weeks
[8] = MDL 100,907 0.002, 0.02 and 0.2 mg/kg orally
[9] = MDL 100,907 0.002, 0.02 and 0.2 mg/kg orally, NS
[10] = MDL 100,907 0.02 and 0.2 mg/kg orally

Cc1nc2sccn2c(=O)c1CCN1CCC(=C(c2ccc(F)cc2)c2ccc(F)cc2)CC1 [ritanserin]
block of the behavioral effects of DOI (5HT2A receptor [1]): dose-dependently block the behavioral effects of DOI

CCCCCCCCCC(=O)O[C@@H](c1cccc(OC)c1OC)C1CCN(CCc2ccc(F)cc2)CC1 [Example 4, (+)-α-(2,3-Dimethyoxyphenyl)-1-[2-(4-fluorophenyl)ethyl]-4-piperidinementhanol decanoate]
concentration at 3 h (in vivo): 54.2 ± 13.3 ng/mL | concentration at 6 h (in vivo): 53.8 ± 17.1 ng/mL | concentration at 24 h (in vivo): 54.1 ± 18 ng/mL | concentration at 48 h (in vivo): 21.6 ± 7.39 ng/mL | concentration at 72 h (in vivo): 39 ± 5.64 ng/mL | concentration at 96 h (in vivo): 52 ± 12.9 ng/mL | concentration at 144 h (in vivo): 41.9 ± 14.6 ng/mL | concentration at 192 h (in vivo): 28.7 ± 9.16 ng/mL | concentration at 288 h (in vivo): 21 ± 12.8 ng/mL | concentration at 360 h (in vivo): 52.4 ± 15.2 ng/mL | concentration at 456 h (in vivo): 40.1 ± 8.44 ng/mL | concentration at 528 h (in vivo): 46.3 ± 9.31 ng/mL | concentration at 624 h (in vivo): 38.9 ± 9.35 ng/mL | concentration at 696 h (in vivo): 43.7 ± 10.8 ng/mL | concentration at 984 h (in vivo): 24.1 ± 9.15 ng/mL | antagonism of DOI-induced behavior at day 40 (5HT2A receptor [2]): no longer significant | duration of significant antagonism of DOI-induced behavior (5HT2A receptor [2]; p<=0.05): 28 days | antagonism of DOI-induced behavior (5HT2A receptor [2]; through day 28): Significantly antagonized DOI-induced behavior

CN(C)CCCN1c2ccccc2CCc2ccccc21 [Imipramine]
sucrose intake in stressed animals, F(1,84) ([3]; imipramine 10 mg/kg ip daily): 16.776 | sucrose intake in stressed animals, p (treatment) ([3]; imipramine 10 mg/kg ip daily): < 0.001 | sucrose intake of drug-treated stressed animals vs drug- and saline-treated controls ([3]; imipramine 10 mg/kg ip daily, after five weeks of treatment): no significant differences | effect on sucrose intake in control animals [3, 7]: no significant effect | effect on sucrose intake in stressed animals [3, 7]: gradual increase of sucrose intake | sucrose intake in stressed animals after withdrawal ([3]; imipramine 10 mg/kg ip daily, one week after withdrawal): maintained at similar level | sucrose intake in control animals, F(1,84) ([3]; imipramine 10 mg/kg ip daily, NS): 0.364

COc1cccc([C@H](O)C2CCN(CCc3ccc(F)cc3)CC2)c1OC [MDL 100,907, (+)-α-(2,3-dimethoxyphenyl)-1-[2-(4-fluorophenyl)ethyl]-4-piperidinemethanol]
effect on rate at which platelets aggregate (platelets): decreases the rate at which platelets aggregate | prevention of acute thrombosis (platelets; especially of the coronary arteries): effective in the prevention of acute thrombosis | effect on sucrose intake throughout the whole treatment period ([3]; MDL 100,907 0.002 mg/kg orally): no significant effect | sucrose intake in stressed animals vs Week 0 ([3]; MDL 100,907 0.02 mg/kg (after two weeks) and 0.2 mg/kg (after three weeks) orally): significantly increased from initial scores | sucrose intake in stressed animals, Treatment effect F(3,168) [3, 8]: 22.567 | sucrose intake in stressed animals, Treatment effect p [3, 8]: < 0.001 | sucrose intake in stressed animals, Treatment x Weeks interaction F(15,158) [3, 8]: 1.559 | sucrose intake in stressed animals, Treatment x Weeks interaction p [3, 8]: 0.05 | effect on sucrose intake in control animals ([3]; MDL 100,907 0.002, 0.02 and 0.2 mg/kg orally daily, five weeks): no significant effect | sucrose intake in control animals, Treatment effect F(3,168) [3, 9]: 0.821 | sucrose intake in control animals, Treatment x Weeks interaction F(15,168) [3, 9]: 0.499 | sucrose intake of stressed animals vs vehicle-treated controls at Week 5 [3, 10]: comparable to that of vehicle-treated controls | sucrose intake of stressed animals vs vehicle-treated stressed animals at Week 5 [3, 10]: significantly higher than that of vehicle-treated stressed animals | sucrose intake one week after withdrawal ([3]; MDL 100,907 all doses, control and stressed animals): not significantly changed | effect on CMS-induced deficit in sucrose intake in stressed animals ([3]; MDL 100,907 orally daily, five weeks): gradually reversed the CMS-induced deficit in sucrose intake | influence on dopamine efflux in the medial prefrontal cortex [4]: tonic inhibitory influence on dopamine efflux | effect on disrupted PPI [5]: restore disrupted PPI | 5HT2A receptor antagonist potency (5HT2A receptor [6]): potent 5HT2A receptor antagonist | anti-arrhythmic class (Vaughan Williams) (myocardial tissue): Class III anti-arrhythmic activity | effect on action potential of myocardial tissue (myocardial tissue): increases the duration of the action potential of myocardial tissue
